In US10435400B2, “2,4-disubstituted phenylene-1,5-diamine derivatives and applications thereof, and pharmaceutical compositions and pharmaceutically acceptable compositions prepared therefrom” (SHANGHAI HAIYAN PHARMACEUTICAL TECHNOLOGY CO., LTD., priority 2014, dated 2019):

Columns and labels:
[1] = tested on: T790M mutant cell line H1975; conditions: background statement; almost no activity; cited from earlier work
NIH3T3 cells = assay: Cytotoxicity by MTT method, NIH3T3 cells; assay type: cell-based; conditions: Mus musculus, NIH3T3; cytotoxicity, MTT, 72 h; read-out: NIH3T3 cells MTT assay (IC50/nM);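 also: cells grown in 96-well plates with compound for 72 h, then given MTT for a further 4 h at 37 °C under 5% CO2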
H1975 cells [2] = assay: Cytostatic activity by MTT method, H1975 cells; assay type: cell-based; conditions: MTT
[3] = In vivo pharmacokinetic test in mice; conditions: male, CD1, mouse, plasma
Description: (§1) LC/MS/MS method was applied for the determination of the drug concentration in plasma at different times after the example compounds were orally and intravenously administered to rats or mice in order to study the pharmacokinetic behavior of the compounds of the invention in vivo in rats or mice and evaluate their pharmacokinetic characteristics.
(§2) Test Animals: healthy Adult male SD rats (weight 200-300 g, 6, fasted) or male CD1 mice (weight 20-30 g, 18, free access to water and food), provided by SLAC company;
(§3) Administration and Dosage: (1 mg/kg, 5 ml/kg, 5% DMAC (dimethylacetamide), 5% Solutol HS 15 (polyethylene glycol-15 hydroxystearate) and 90% saline was intravenously administered via foot dorsal vein and (20 mg/kg, 10 ml/kg, 0.5% CMC-Na solution) was administered via oral gavage to SD rats; (1 mg/kg, 5 ml/kg, 5% DMAC, 5% Solutol HS 15 and 90% Saline) was administered intravenously via tail vein and (5 mg/kg, 10 mL/kg, 0.5% CMC-Na aqueous solution) was administered via oral gavage to CD1 mice.
(§4) Blood collection: firstly, the animals which were selected to meet the test requirements prior to administration were weighed. The rats or mice were bound before the blood collection, blood from each administered rat was taken at predetermined time points (intravenous administration: blood was collected at 0.083, 0.25, 0.5, 1, 2, 4, 8, 24 h before and after administration respectively, 9 time points in total; gavage: blood was collected at 0.083, 0.25, 0.5, 1, 2, 4, 8, 24 h before and after administration respectively, 9 time points in total), about 150 μl of blood was collected via tail vein or heart (blood terminal). Blood from each administered mouse was taken blood at predetermined time points (tail vein: blood was collected at 0.083, 0.25, 0.5, 1, 2, 4, 8, 24 h, 8 time points in total; gavage: blood was collected at 0.25, 0.5, 1, 2, 4, 8, 24 h, 7 time points in total), about 150 μl of blood was collected via orbital or heart (blood terminal). Blood was transferred to a 1.5 ml tube to which K2EDTA was added previously. The collected blood sample was put on ice, and centrifuged to obtain plasma sample (2000 g, 5 min under 4° C.) within 15 minutes. All the plasma samples were stored at approximately −70° C. until analysis.
(§5) LC/MS/MS method was applied to determine the concentrations of the drug. At the same dose and administration, pharmacokinetic parameters of some example compounds of the invention in rats and mice were shown in Table 9: […]

EGFR WT kinase = EGFR WT kinase (Homo sapiens (Human), UniProt P00533); assay: Wild type EGFR kinase inhibition test (z-lyte); assay type: biochemical; conditions: 10 μM ATP
H1975 cells [4] = assay: ELISA screening EGFR T790M inhibitor for cell activity, H1975 cells; assay type: cell-based; conditions: ELISA
A431 cells [5] = assay: ELISA cell activity, EGF-stimulated A431 cells; assay type: cell-based; conditions: Homo sapiens, A-431; ELISA, compound 1 h then EGF 45 minutes; read-out: A431 cells (IC50/nM);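 also: Serum-starved A431 cells pretreated with compound for 1 h, then stimulated with EGF for 45 min, lysates read by ELISA (OD450 minus OD570), EGF-only wells as control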
[6] = In vivo pharmacokinetic test in rats; conditions: male, SD, rat, plasma
Description: as §1, §2, §3, §4, §5

A431 cells [7] = assay: Cytostatic activity by MTT method, A431 cells; conditions: Homo sapiens, A-431, 72 h, read-out: A431 cells (IC50/nM);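 also: viability read by MTT reduction after compound exposure, with MTT incubated for a further 4 h at 37 °C under 5% CO2 in 96-well plates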
[8] = IV 1 mg/kg, read-out: Clearance CL
[9] = IV 1 mg/kg, read-out: Half-life T½ (converted)

EGFR WT kinase, sequence (P00533 25-1210): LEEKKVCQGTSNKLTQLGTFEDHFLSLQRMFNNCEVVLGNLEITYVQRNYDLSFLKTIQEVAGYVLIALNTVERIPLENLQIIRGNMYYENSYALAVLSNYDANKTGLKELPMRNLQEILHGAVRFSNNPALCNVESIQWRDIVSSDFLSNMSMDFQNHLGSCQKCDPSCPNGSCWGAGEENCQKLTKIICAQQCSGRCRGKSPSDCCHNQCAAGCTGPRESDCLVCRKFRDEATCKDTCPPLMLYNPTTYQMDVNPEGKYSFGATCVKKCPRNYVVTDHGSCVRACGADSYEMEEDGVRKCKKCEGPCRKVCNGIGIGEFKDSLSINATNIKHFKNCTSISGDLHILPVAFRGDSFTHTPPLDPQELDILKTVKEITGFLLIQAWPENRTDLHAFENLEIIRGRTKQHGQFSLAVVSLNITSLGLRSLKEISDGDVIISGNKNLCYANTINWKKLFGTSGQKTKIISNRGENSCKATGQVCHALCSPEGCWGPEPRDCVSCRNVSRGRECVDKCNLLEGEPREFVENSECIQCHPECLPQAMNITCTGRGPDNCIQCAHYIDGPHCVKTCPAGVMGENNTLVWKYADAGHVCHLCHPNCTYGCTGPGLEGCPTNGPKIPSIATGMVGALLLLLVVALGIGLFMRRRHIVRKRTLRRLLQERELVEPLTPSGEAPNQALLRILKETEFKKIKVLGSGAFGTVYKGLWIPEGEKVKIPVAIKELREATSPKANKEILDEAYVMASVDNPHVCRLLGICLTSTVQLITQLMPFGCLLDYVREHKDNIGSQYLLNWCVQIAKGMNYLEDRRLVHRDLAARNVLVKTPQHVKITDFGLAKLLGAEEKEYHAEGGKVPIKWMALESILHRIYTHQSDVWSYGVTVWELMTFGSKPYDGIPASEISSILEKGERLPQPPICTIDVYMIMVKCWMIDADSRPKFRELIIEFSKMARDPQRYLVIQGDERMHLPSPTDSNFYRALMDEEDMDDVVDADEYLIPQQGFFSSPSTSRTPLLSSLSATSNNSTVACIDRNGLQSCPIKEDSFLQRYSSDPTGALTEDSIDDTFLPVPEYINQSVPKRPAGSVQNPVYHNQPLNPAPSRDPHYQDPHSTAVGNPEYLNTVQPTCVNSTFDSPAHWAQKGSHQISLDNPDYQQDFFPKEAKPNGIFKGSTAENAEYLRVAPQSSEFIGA

IC50 (H1975 cells [2]; Homo sapiens, NCI-H1975, 72 h, read-out: H1975 cells (IC50/nM))	selective inhibitory activity against the cell growth [IC50 (A431 cells)/IC50 (H1975 cells)] (H1975 cells [2]; ratio of IC50 values)	clearance [3, 8]	half-life [3, 9]	bioavailability ([3]; oral gavage 5 mg/kg vs IV 1 mg/kg, read-out: Oral relative bioavailability F)	AUC ([3]; route not given (IV 1 mg/kg, oral gavage 5 mg/kg), read-out: Area under the curve AUC)	Cmax ([3]; route not given (IV 1 mg/kg, oral gavage 5 mg/kg), read-out: Maximum plasma concentration Cmax)	IC50 (EGFR WT kinase)	Selective inhibitory activities of target on cellular level [IC50 (A431 cells)/IC50 (H1975 cells)] (H1975 cells [4]; ratio of IC50 values)	IC50 (H1975 cells [4]; Homo sapiens, NCI-H1975, compound 1 h, read-out: H1975 cells (IC50/nM))	IC50 (A431 cells [5])	clearance [6, 8]	half-life [6, 9]	bioavailability ([6]; oral gavage 20 mg/kg vs IV 1 mg/kg, read-out: Oral relative bioavailability F)	AUC ([6]; route not given (IV 1 mg/kg, oral gavage 20 mg/kg), read-out: Area under the curve AUC)	Cmax ([6]; route not given (IV 1 mg/kg, oral gavage 20 mg/kg), read-out: Maximum plasma concentration Cmax)	IC50 (A431 cells [7])	Compound	activity in T790M mutant cell line H1975 [1]	IC50 (NIH3T3 cells)
																	COc1cc2ncnc(Nc3ccc(F)c(Cl)c3)c2cc1OCCCN1CCOCC1 [gefitinib]	greater than 3 uM	
																	C#Cc1cccc(Nc2ncnc3cc(OCCOC)c(OCCOC)cc23)c1 [erlotinib]	greater than 3 uM	
17 nM	140.6	65.5 mL/min/kg	4.65 h	66.4%	657 ng·h/mL	90.6 ng/mL	102 nM	50	34 nM	1690 nM	43.9 mL/min/kg	7.02 h	92.6%	6480 ng·h/mL	408 ng/mL	2390 nM	C=CC(=O)Nc1cc(Nc2ncc(F)c(-c3cnn(C)c3)n2)c(OC)cc1N1CCC(N(C)C)CC1 [Compound Z-90, N-(2-(4-(dimethylamino)piperidin-1-yl)-5-(5-fluoro-4-(1-methyl-1H-pyrazol-4-yl)pyrimidin-2-ylamino)-4-methoxyphenyl)acrylamide]		> 10000 nM
